In PMC4812144, “Flavonolignans As a Novel Class of Sodium Pump Inhibitors” (Frontiers in Physiology, 2016):

What was measured:
Na+/K+-ATPase (NKA) [1] = molecular target: T1, Na+/K+-ATPase (NKA) (Sus scrofa, UniProt P05024); experiment: Ouabain-sensitive ATPase activity of NKA (Baginsky assay); type: biochemical, porcine; settings: for IC50: ouabain-sensitive ATPase activity, NKA from porcine kidney, 3 mM ATP, read-out: IC50 for inhibition of the NKA activity; for n, Hill coefficient: fit of NKA inhibition curve to logistic function
T1 construct: The NKA was prepared from porcine kidney outer medulla; from tissue; host or cells: porcine kidney outer medulla
Experimental: The NKA was prepared from porcine kidney outer medulla using the method of Jorgensen and Klodos with some modifications (Jørgensen, [1988]; Klodos et al., [2002]; Kubala et al., [2014]). An isolated enzyme was pipetted into small aliquots and stored at −20°C in ISE buffer (25 mM imidazole, 250 mM sucrose, 1 mM EDTA, pH 7.4) containing SDS detergent. The molar concentration of isolated NKA was estimated using the Bradford method with consideration of MW(α + β) = 165,000 Da. The protein purity >90% was estimated from SDS-PAGE (Figure 2).
The measurements of NKA activity were performed using the Baginsky assay (Kubala et al., [2014]). The assay was performed in microwell plates in 4 replicates for each point and automated in the pipetting station Freedom EVO (Tecan, Switzerland).
(§1) The reaction buffer was composed of 325 mM NaCl, 50 mM KCl, 7.5 mM MgCl2, and 75 mM imidazole, pH 7.2. In the experiments where the K^+-dependence was estimated, the KCl concentration is ranging from 0 to 100 mM. The NKA (0.1 mg/mL) isolated from porcine kidney was mixed with reaction buffer without ATP. All inhibitors were solubilized in methanol immediately before the measurement and then premixed with the reaction buffer to the required concentration. Subsequently, 10 μL of inhibitor solution was added into 20 μL of enzyme solution and incubated for 2 min. In the control sample, only 10 μL of reaction buffer without inhibitor was added including corresponding amount of methanol. The reaction was started by the addition of ATP solution (20 μL, 7.5 mM in the stock, the final concentration in the reaction was 3 mM). The reaction proceeded for 6 min at room temperature and then was stopped by addition of 75 μL of staining solution, which was composed of 160 mM ascorbic acid, 3.7% (v/v) acetic acid, 3% (w/v) SDS, and 0.5% ammonium molybdate. The staining reaction was stopped after another 8 min by adding 125 μL of solution composed of 0.9% (w/v) bismuth citrate, 0.9% (w/v) sodium citrate and 3.7% HCl.
The Baginsky method detects a product of ATP hydrolysis, inorganic phosphate, which interacts with ammonium molybdate. The reaction results in a color change, which can be monitored as a change of absorbance at 710 nm, and was measured using microplate reader Synergy Mx (BioTek, USA). The calibration line was determined using KH2PO4 solutions, in […] concentration range.
(§2) The specific NKA activity is standardly estimated using the treatment by ouabain, which serves as a specific inhibitor of NKA. The ATPase activity decreases to less than 10% in the presence of 10 mM ouabain. This residual activity in the presence of ouabain was subtracted from the total estimated ATPase activity in ouabain-untreated samples, and all data are presented as the ouabain-sensitive ATPase activity. The IC50 values were obtained from fitting the data to the logistic function.

[2] = Solubility (qualitative remarks); type: physicochemical; settings: NKA activity assay
Na+/K+-ATPase (NKA) [3] = molecular target: T1, Na+/K+-ATPase (NKA); experiment: K+/ouabain antagonism: ouabain inhibition of NKA activity with or without flavonolignan; type: biochemical, porcine; settings: for K0.5(ouabain): in the presence of 40 μM flavonolignan; for IC50: K0.5(ouabain), no flavonolignan (row None)
Experimental: as §1, §2
(§3) We have tested influence of these three species on the ouabain inhibition and K^+-dependence of NKA activation. None of the species substantially influenced the IC50 for ouabain or the K^+/ouabain antagonism (Figure 5). The NKA activity is K^+-dependent and it increased with increasing concentration of potassium with K0.5(K^+) = 4.2 ± 0.6 mM.

Na+/K+-ATPase (NKA) [4] = molecular target: T1, Na+/K+-ATPase (NKA); experiment: K+-dependence of NKA activity (K+-dependent activation); type: biochemical, porcine
Experimental: as §1, §3

[5] = molecular target: T2, large cytoplasmic segment C45 of NKA (C45 loop, residues L354-I777) (Mus musculus, UniProt Q8VDN2); experiment: Fluorescence spectroscopy of interaction with isolated large cytoplasmic segment C45; type: binding; settings: 5 μM species; for Fluorescence intensity increase in the presence of C45: 5 μM C45, pH 7.4, excitation 380 nm
T2 construct: (His)6-tag (N); made in house; host or cells: E. coli BL21
Experimental: The large cytoplasmic segment connecting the transmembrane helices 4 and 5 (C45 loop, residues L354-I777 of the mouse brain sequence) with a (His)6-tag at the N-terminus was expressed in E. coli BL21 (Promega, USA) and purified using a Co^2+-based affinity resin (Clontech, USA) as described previously (Grycova et al., [2009]). Immediately after elution, the protein was dialyzed into 20 mM Tris, 140 mM NaCl, pH 7.4 buffer and stored at −20°C.
Spectroscopic experiments were performed in 20 mM Tris, 140 mM NaCl, pH 7.4 buffer. SCH, DHSCH and DHSD as well as protein C45 were diluted to 5 μM concentration.
Fluorescence emission spectra were measured using Fluorolog-3 (Horiba Scientific, USA). The spectra were scanned with a step of 1 nm, both excitation- and emission bandpass 5 nm and integration time 1 s. For SCH, the excitation was 325 nm and emission was recorded in the 340–600 nm interval, for DHSCH and DHSD, the excitation wavelength was 380 nm and spectra were scanned in the 400–600 nm interval. Signal from pure buffer was subtracted as a background.

[6] = 40 mM KCl (value in parentheses)
[7] = in the presence of 40 μM flavonolignan

Row | IC50 (Na+/K+-ATPase (NKA) [1]) [µM] | Solubility limiting the examined concentration range [2] | n, Hill coefficient (Na+/K+-ATPase (NKA) [1]) | K0.5(ouabain) (Na+/K+-ATPase (NKA) [3]; 5 mM KCl) [µM] | K0.5(ouabain) (Na+/K+-ATPase (NKA) [3]; [6]) [µM] | K0.5(K+) for K+-dependent activation of NKA (Na+/K+-ATPase (NKA) [4]; [7]) [mM] | Compound | other results
1 | > 1000 | – | – | – | – | – | O=c1c(O)c(-c2ccc(O)c(O)c2)oc2cc(O)cc(O)c12 [QUE, quercetin] | –
2 | > 1000 | lower solubility | – | – | – | – | COc1cc([C@@H]2[C@H]3CO[C@@]4(O)C(=O)[C@@H]2C=C([C@H]2Oc5cc(O)cc(O)c5C(=O)[C@@H]2O)[C@@H]34)ccc1O [SD, silydianin] | –
3 | 38 ± 8 | – | 0.8 ± 0.1 | 1.5 ± 0.5 | 24 ± 6 | 4 ± 1 | COc1cc(C2Oc3c(O)cc(-c4oc5cc(O)cc(O)c5c(=O)c4O)cc3C2CO)ccc1O (centres unmarked) [DHSCH, dehydrosilychristin] | Fluorescence intensity increase in the presence of C45 [5]: ca. 3 times
4 | > 1000 | lower solubility | – | – | – | – | COc1cc(C2Oc3cc([C@H]4Oc5cc(O)cc(O)c5C(=O)[C@@H]4O)ccc3OC2CO)ccc1O (some centres unmarked) [SB, silybin] | –
5 | 900 ± 800 | lower solubility | 0.5 ± 0.1 | – | – | – | COc1cc(C2Oc3cc(-c4oc5cc(O)cc(O)c5c(=O)c4O)ccc3OC2CO)ccc1O (centres unmarked) [DHSB] | –
6 | 110 ± 40 | – | 0.6 ± 0.1 | 4.0 ± 1.7 | 18 ± 2 | 8 ± 5 | COc1cc(C2Oc3c(O)cc([C@H]4Oc5cc(O)cc(O)c5C(=O)[C@@H]4O)cc3C2CO)ccc1O (some centres unmarked) [SCH, silychristin] | Fluorescence quantum yield increase in the presence of C45 compared to the free species ([5]; 5 μM C45, pH 7.4): more than 1000 times
7 | 36 ± 14 | lower solubility | 0.6 ± 0.1 | 3.3 ± 1.4 | 19 ± 7 | 3 ± 2 | COc1cc(C2C3C=C(c4oc5cc(O)cc(O)c5c(=O)c4O)C4C2COC4(O)C3=O)ccc1O (centres unmarked) [DHSD, dehydrosilydianin] | Fluorescence intensity increase in the presence of C45 [5]: three-fold
8 | > 1000 | – | – | – | – | – | O=C1c2c(O)cc(O)cc2OC(c2ccc(O)c(O)c2)C1O (centres unmarked) [TAX, taxifolin] | –
9 | – | – | – | – | – | – | C[C@@H]1O[C@@H](O[C@H]2C[C@@H](O)[C@]3(CO)[C@H]4[C@H](O)C[C@]5(C)[C@@H](C6=CC(=O)OC6)CC[C@]5(O)[C@@H]4CC[C@]3(O)C2)[C@H](O)[C@H](O)[C@H]1O [ouabain, reference compound] | remaining activity at 10000 µM (Na+/K+-ATPase (NKA) [1]; read-out: ATPase activity remaining in the presence of ouabain): < 10%; IC50 (Na+/K+-ATPase (NKA) [3]; 5 mM KCl): 2.6 ± 1.3 µM; IC50 (Na+/K+-ATPase (NKA) [3]; [6]): 23 µM; K0.5(K+) for K+-dependent activation of NKA (Na+/K+-ATPase (NKA) [4]; in the presence of ouabain): 14.8 ± 0.1 mM
